In publication PMC7914897, “Cytotoxic Potential of a-Azepano- and 3-Amino-3,4-SeCo-Triterpenoids” (International Journal of Molecular Sciences, 2021):

Key:
[1] = tested on: NIH 3T3 (non-malignant mouse fibroblasts); test: SRB cytotoxicity assay, 72 h; type: cell-based; conditions: Mus musculus, NIH3T3; NIH 3T3, 72 h, cut-off 30 µM; read-out: EC50
Method in brief: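 Absorbance at 570 nm of SRB-stained cells gives % survival vs untreated controls, from which EC50 is determined. Treatment: 0–30 µM serial dilutions, 72 h, beginning 24 h post-seeding; DMSO ≤0.5%. TCA (10%) fixation, acetic acid wash.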

CNS cancer subpanel = test: NCI-60 screen, subpanel; conditions: Homo sapiens
Melanoma subpanel = test: NCI-60 screen, subpanel; conditions: Homo sapiens
HOP-92 (NSC lung cancer) = test: NCI-60 screen (SRB, 48 h); conditions: Homo sapiens
[2] = tested on: NCI-H226 (NSC lung cancer); test: NCI-60 screen (SRB, 48 h); conditions: Homo sapiens
[3] = tested on: NCI-H322M (NSC lung cancer); test: NCI-60 screen (SRB, 48 h); conditions: Homo sapiens
COLO 205 (Colon cancer) = test: NCI-60 screen (SRB, 48 h)
HCC-2998 (Colon cancer) = test: NCI-60 screen (SRB, 48 h); conditions: Homo sapiens
HCT-116 (Colon cancer) = test: NCI-60 screen (SRB, 48 h); conditions: Homo sapiens
HCT-15 (Colon cancer) = test: NCI-60 screen (SRB, 48 h); conditions: Homo sapiens
SW-620 (Colon cancer) = test: NCI-60 screen (SRB, 48 h); conditions: Homo sapiens
SF-295 (CNS cancer) = test: NCI-60 screen (SRB, 48 h); conditions: Homo sapiens
SNB-19 (CNS cancer) = test: NCI-60 screen (SRB, 48 h); conditions: Homo sapiens
SNB-75 (CNS cancer) = test: NCI-60 screen (SRB, 48 h); conditions: Homo sapiens
MALME-3M (Melanoma) = test: NCI-60 screen (SRB, 48 h); conditions: Homo sapiens
M14 (Melanoma) = test: NCI-60 screen (SRB, 48 h); conditions: Homo sapiens
UACC-257 (Melanoma) = test: NCI-60 screen (SRB, 48 h); conditions: Homo sapiens
OVCAR-5 (Ovarian cancer) = test: NCI-60 screen (SRB, 48 h); conditions: Homo sapiens
A498 (Renal cancer) = test: NCI-60 screen (SRB, 48 h); conditions: Homo sapiens
ACHN (Renal cancer) = test: NCI-60 screen (SRB, 48 h); conditions: Homo sapiens
SN12C (Renal cancer) = test: NCI-60 screen (SRB, 48 h); conditions: Homo sapiens
MCF7 (Breast cancer) = test: NCI-60 screen (SRB, 48 h); conditions: Homo sapiens
[4] = tested on: MDA-MB-31/ATCC (Breast cancer); test: NCI-60 screen (SRB, 48 h); conditions: Homo sapiens

CC(C)=C1CCC=C2CC[C@]3(C)[C@H](CC[C@@H]4[C@@]5(C)CCCNC(C)(C)[C@@H]5CC[C@]43C)[C@H]21 [Compound 9]
EC50 [1]: 2650 ± 500 nM
IC (TGI) (CNS cancer subpanel; 48 h, read-out: TGI MG_MID): 3.44 µM
GI50 (CNS cancer subpanel; read-out: GI50 MG_MID): 1830 nM
CC50 (CNS cancer subpanel; read-out: LC50 MG_MID): 6.61 µM
IC (TGI) (Melanoma subpanel; 48 h, read-out: TGI MG_MID): 3.3 µM
GI50 (Melanoma subpanel; read-out: GI50 MG_MID): 1770 nM
CC50 (Melanoma subpanel; read-out: LC50 MG_MID): 6.17 µM
GI50 (HOP-92 (NSC lung cancer); HOP-92): 1390 nM
IC (TGI) (HOP-92 (NSC lung cancer); HOP-92, 48 h, read-out: TGI): 2.77 µM
CC50 (HOP-92 (NSC lung cancer); HOP-92, read-out: LC50): 5.52 µM
GI50 ([2]; NCI-H226): 1790 nM
IC (TGI) ([2]; NCI-H226, 48 h, read-out: TGI): 3.54 µM
GI50 [3]: 1680 nM
IC (TGI) ([3]; 48 h, read-out: TGI): 3.07 µM
CC50 ([3]; read-out: LC50): 5.61 µM
Growth % of the Most Sensitive Cell Lines (COLO 205 (Colon cancer); COLO 205, 1 dose 10 µM): −93.54%
GI50 (COLO 205 (Colon cancer); Homo sapiens, COLO 205): 1480 nM
IC (TGI) (COLO 205 (Colon cancer); Homo sapiens, COLO 205, 48 h, read-out: TGI): 2.97 µM
GI50 (HCC-2998 (Colon cancer); HCC 2998): 1740 nM
IC (TGI) (HCC-2998 (Colon cancer); HCC 2998, 48 h, read-out: TGI): 3.19 µM
GI50 (HCT-116 (Colon cancer); HCT-116): 1730 nM
IC (TGI) (HCT-116 (Colon cancer); HCT-116, 48 h, read-out: TGI): 3.31 µM
GI50 (HCT-15 (Colon cancer); HCT-15): 1400 nM
IC (TGI) (HCT-15 (Colon cancer); HCT-15, 48 h, read-out: TGI): 2.81 µM
GI50 (SW-620 (Colon cancer); SW-620): 1660 nM
IC (TGI) (SW-620 (Colon cancer); SW-620, 48 h, read-out: TGI): 3.23 µM
GI50 (SF-295 (CNS cancer); SF-295): 1870 nM
IC (TGI) (SF-295 (CNS cancer); SF-295, 48 h, read-out: TGI): 3.42 µM
CC50 (SF-295 (CNS cancer); SF-295, read-out: LC50): 6.24 µM
GI50 (SNB-19 (CNS cancer); SNB-19): 1810 nM
IC (TGI) (SNB-19 (CNS cancer); SNB-19, 48 h, read-out: TGI): 3.36 µM
GI50 (SNB-75 (CNS cancer); SNB-75): 1980 nM
IC (TGI) (SNB-75 (CNS cancer); SNB-75, 48 h, read-out: TGI): 3.84 µM
CC50 (SNB-75 (CNS cancer); SNB-75, read-out: LC50): 7.44 µM
GI50 (MALME-3M (Melanoma)): 1770 nM
IC (TGI) (MALME-3M (Melanoma); 48 h, read-out: TGI): 3.48 µM
CC50 (MALME-3M (Melanoma); read-out: LC50): 6.84 µM
GI50 (M14 (Melanoma); M14): 1730 nM
IC (TGI) (M14 (Melanoma); M14, 48 h, read-out: TGI): 3.26 µM
CC50 (M14 (Melanoma); M14, read-out: LC50): 6.12 µM
GI50 (UACC-257 (Melanoma); UACC-257): 1860 nM
IC (TGI) (UACC-257 (Melanoma); UACC-257, 48 h, read-out: TGI): 3.63 µM
CC50 (UACC-257 (Melanoma); UACC-257, read-out: LC50): 7.09 µM
GI50 (OVCAR-5 (Ovarian cancer); OVCAR-5): 1670 nM
IC (TGI) (OVCAR-5 (Ovarian cancer); OVCAR-5, 48 h, read-out: TGI): 3.07 µM
CC50 (OVCAR-5 (Ovarian cancer); OVCAR-5, read-out: LC50): 5.65 µM
GI50 (A498 (Renal cancer); A498): 1870 nM
IC (TGI) (A498 (Renal cancer); A498, 48 h, read-out: TGI): 3.6 µM
CC50 (A498 (Renal cancer); A498, read-out: LC50): 6.93 µM
GI50 (ACHN (Renal cancer)): 1760 nM
IC (TGI) (ACHN (Renal cancer); 48 h, read-out: TGI): 3.14 µM
CC50 (ACHN (Renal cancer); read-out: LC50): 5.62 µM
GI50 (SN12C (Renal cancer)): 1830 nM
IC (TGI) (SN12C (Renal cancer); 48 h, read-out: TGI): 3.44 µM
CC50 (SN12C (Renal cancer); read-out: LC50): 6.45 µM
GI50 (MCF7 (Breast cancer); MCF7): 1770 nM
IC (TGI) (MCF7 (Breast cancer); MCF7, 48 h, read-out: TGI): 3.54 µM
GI50 [4]: 1800 nM
IC (TGI) ([4]; 48 h, read-out: TGI): 3.47 µM
CC50 ([4]; read-out: LC50): 6.69 µM
